Measurements taken from ChEMBL document CHEMBL2057122, “Synthesis and positive inotropic evaluation of N-(1-oxo-1,2,4,5-tetrahydro-[1,2,4]triazolo[4,3-a]quinolin-7-yl)acetamides bearing piperazine and 1,4-diazepane moieties” (Bioorg Med Chem Lett, 2012).
Active and inactive are the calls of the source. No cut-off for these calls is given here.

Legend:
[1] = Chronotropic effect in New Zealand White rabbit left atrium assessed as change in heart rate by electrocardiogram analysis relative to control; format: tissue-based, Oryctolagus cuniculus, Cardiac atrium
Oryctolagus cuniculus [2] = organism: Oryctolagus cuniculus; assay: Positive inotropic effect in New Zealand White rabbit beating left atrium assessed as increase in stroke volume at 30 uM/L by electrocardiogram analysis; format: functional, tissue-based; conditions: Cardiac atrium
[3] = (§1) Positive inotropic effect in New Zealand White rabbit left atrium assessed as increase in stroke volume at 3 X 10^-5 M by electrocardiogram analysis; format: functional, Oryctolagus cuniculus, Cardiac atrium
Oryctolagus cuniculus [4] = organism: Oryctolagus cuniculus; assay: as §1; format: functional; conditions: Cardiac atrium
Oryctolagus cuniculus [5] = organism: Oryctolagus cuniculus; assay: Positive inotropic effect in New Zealand White rabbit left atrium assessed as increase in stroke volume at 1 X 10^-4 M by electrocardiogram analysis; format: functional, tissue-based; conditions: Cardiac atrium

Row | Structure (SMILES) | Activity [1] [bpm] | Activity (Oryctolagus cuniculus [2]) | Activity [3] [%] | Activity (Oryctolagus cuniculus [4]) | Activity (Oryctolagus cuniculus [5])
1 | O=C(CN1CCCN(Cc2ccccc2)CC1)Nc1ccc2c(c1)CCc1n[nH]c(=O)n1-2 | 90.01 | inactive | 9.07 | – | –
2 | O=C(CN1CCN(Cc2cccc(F)c2)CC1)Nc1ccc2c(c1)CCc1n[nH]c(=O)n1-2 | – | – | – | inactive | –
3 | O=C(CN1CCN(Cc2ccccc2)CC1)Nc1ccc2c(c1)CCc1n[nH]c(=O)n1-2 | – | inactive | 3.56 | – | –
4 | O=C(CN1CCN(Cc2cccc(Cl)c2)CC1)Nc1ccc2c(c1)CCc1n[nH]c(=O)n1-2 | – | inactive | 3.46 | – | –
5 | O=C(CN1CCN(Cc2c(Cl)cccc2Cl)CC1)Nc1ccc2c(c1)CCc1n[nH]c(=O)n1-2 | – | – | – | inactive | –
6 | O=C(CN1CCN(Cc2ccc(Cl)cc2)CC1)Nc1ccc2c(c1)CCc1n[nH]c(=O)n1-2 | – | inactive | 3.09 | – | –
7 | O=C(CN1CCCN(Cc2cccc(Cl)c2)CC1)Nc1ccc2c(c1)CCc1n[nH]c(=O)n1-2 | 120.84 | inactive | 6.41 | – | –
8 | COc1cc(CN2CCN(CC(=O)Nc3ccc4c(c3)CCc3n[nH]c(=O)n3-4)CC2)ccc1OCc1ccc(Cl)cc1 | – | – | 2.22 | – | –
9 | Cc1ccc(CN2CCCN(CC(=O)Nc3ccc4c(c3)CCc3n[nH]c(=O)n3-4)CC2)cc1 | 111.86 | inactive | 6.75 | – | –
10 | O=C(CN1CCN(Cc2ccccc2Cl)CC1)Nc1ccc2c(c1)CCc1n[nH]c(=O)n1-2 | – | inactive | 4.01 | – | –
11 | Cc1[nH]c(=O)c(C#N)cc1-c1ccncc1 [MILRINONE] | – | inactive | 2.46 | – | –
12 | COc1ccc(CN2CCN(CC(=O)Nc3ccc4c(c3)CCc3n[nH]c(=O)n3-4)CC2)cc1 | – | – | 1.46 | – | –
13 | O=C(CN1CCN(Cc2ccccc2Br)CC1)Nc1ccc2c(c1)CCc1n[nH]c(=O)n1-2 | – | – | – | inactive | –
14 | O=C(CN1CCN(C/C=C/c2ccccc2)CC1)Nc1ccc2c(c1)CCc1n[nH]c(=O)n1-2 | 99.89 | inactive | 9.4 | – | inactive
15 | O=C(CN1CCCN(Cc2ccc(Cl)cc2)CC1)Nc1ccc2c(c1)CCc1n[nH]c(=O)n1-2 | 121.68 | inactive | 15.48 | – | inactive
16 | O=C(CN1CCN(Cc2ccccc2F)CC1)Nc1ccc2c(c1)CCc1n[nH]c(=O)n1-2 | – | – | 1.82 | – | –
17 | Cc1ccc(CN2CCN(CC(=O)Nc3ccc4c(c3)CCc3n[nH]c(=O)n3-4)CC2)cc1 | – | inactive | 5.48 | – | –
18 | O=C(CN1CCN(Cc2cccc(Br)c2)CC1)Nc1ccc2c(c1)CCc1n[nH]c(=O)n1-2 | – | – | – | inactive | –
19 | O=C(CN1CCN(Cc2ccc(F)cc2)CC1)Nc1ccc2c(c1)CCc1n[nH]c(=O)n1-2 | – | – | – | inactive | –
20 | O=C(CN1CCCN(Cc2ccccc2Cl)CC1)Nc1ccc2c(c1)CCc1n[nH]c(=O)n1-2 | 118.36 | inactive | 8.98 | – | –
21 | COc1cc(CN2CCN(CC(=O)Nc3ccc4c(c3)CCc3n[nH]c(=O)n3-4)CC2)ccc1OCc1ccccc1 | – | – | 2.26 | – | –
22 | O=C(CN1CCN(Cc2ccc(Br)cc2)CC1)Nc1ccc2c(c1)CCc1n[nH]c(=O)n1-2 | – | – | – | inactive | –
